Measurements taken from patent US6750221B1 (BASF Aktiengesellschaft, priority 1999, dated 2004).
Where two headings read alike, the source gives them in different places.

Legend:
h5-HT5 receptor [1] = molecular target: T1, h5-HT5 receptor (Homo sapiens, UniProt P47898); experiment: [3H]-5-CT binding competition on h5-HT5 membranes
T1 construct: expressed in transfected cells; host or cells: HEK293 cells (CHO cells obtained analogously), pcDNA3 plasmid, neomycin selection; membranes prepared
Method: Membranes obtained according to Example 2 (200 μl) were incubated in the presence of 2 nM [^3H]-5-CT in a total volume of 600 μl in buffer B with increasing concentrations of selected compounds. After an incubation time of 75 min at 30° C., the samples were filtered at 4° C. through GF/B filters embedded in 0.3% polyethyleneimide using buffer B. The filters were washed with 9 ml of buffer B. The radioactivity retained on the filters was determined as in Reference Example 3.
According to Reference Example 4, the binding affinities of serotoninergic compounds were determined by means of [^3H]-5-CT binding competition.

h5-HT5 receptor [2] = molecular target: T1, h5-HT5 receptor; experiment: Saturation binding of [3H]-5-CT to membranes of h5-HT5 receptor-expressing cells; conditions: 30° C., 90 min, read-out: dissociation constant Kd
Method: The gene coding for the human 5-HT5 receptor was isolated from human tissues in a known manner by means of 3′-5′-RT-PCR (RACE system, Boehringer Mannheim). The gene sequence was then inserted into a plasmid carrying the neomycin resistance gene (pcDNA3; Invitrogen, Germany) and amplified in E. coli according to the manufacturer's instructions. A preparation of the resulting plasmid was mixed with Lipofectamin® (Gibco Life-Sciences, Germany), and HEK293 cells were incubated with a thin layer of this transfection mixture in petri dishes (2.5 cm). The transfection mixture was then replaced by neomycin-containing culture medium. […]
The methodology is essentially known (Ress S. et al., FEBS Letters 335:242-246 (1994)). […] The filters were washed at 4° C. with 9 ml of buffer B. The radioactivity retained on the filters was measured by means of liquid scintillation counting, 5 ml of Ultima-Gold (Packard) being used.
The saturation parameters of the [^3H]-5-CT binding was determined both by nonlinear regression analysis and from linear plots using the SigmaPlot software (Jandel Scientific, Germany). Competition curves were set up in which the radioactive binding is expressed as a percentage proportion of the total binding. Half maximal inhibition constants IC50 and Hill-coefficients (nH) were determined by means of nonlinear regression analysis. […]

male Long Evans rats = experiment: Neuroprotective action: MCA occlusion (experimental cerebral stroke); type: in vivo, rat; conditions: 90 min after MCA occlusion, infarct volume 22 hours after occlusion
Method: The experiments were performed on male Long Evans rats. Under nitrous oxide-assisted halothane anesthesia, the middle cerebral artery (MCA) was severed and permanently ligated distally, as described in the literature. The resulting infarct volume was determined 22 hours after MCA occlusion.

hippocampal neurons = experiment: Neuroprotective action: experimental brain trauma of the rat (lateral fluid percussion); type: in vivo; conditions: 20 + 20 mg/kg i.p., 15 + 120 min post trauma; 14 days after traumatization
Source text: The lateral fluid percussion method (McIntosh TK, Neuroscience 28, 233 244, 1989) was used in order to produce an experimental brain trauma in the rat which is suitable for the testing of potential neuroprotective substances. By means of this technique, controlled and consistent tissue damage was produced underneath the site of the impact, which included the neocortex, the hippocampus and the thalamus.
The right parietotemporal region of the skull was exposed in the anesthetized rat. The skull was trepanned through the parietal cortex (about 4 mm diameter), the dura being left intact. A Luer lock attachment was fixed to the skull using dental cement through the trepanation. After the dental cement had hardened, the rat was connected to the fluid percussion apparatus according to McIntosh. This consisted of a cylinder filled with 0.9% NaCl solution, one end of the cylinder being closed by a piston, while the other end was connected via a pressure transducer to a Luer lock attachment. […]
The rats were sacrificed 14 days after traumatization for removal of the brain. […] For the quantification of the neuronal damage, cell counts were carried out bilaterally in the rostral hippocampus; the proportion of intact cells in the dentate gyrus was determined on the traumatized (right) and the (left) opposite side. […]

[3] = 2 + 1 mg/kg + mg/kg/h i.v. bolus then infusion

T1 sequence (P47898 whole entry): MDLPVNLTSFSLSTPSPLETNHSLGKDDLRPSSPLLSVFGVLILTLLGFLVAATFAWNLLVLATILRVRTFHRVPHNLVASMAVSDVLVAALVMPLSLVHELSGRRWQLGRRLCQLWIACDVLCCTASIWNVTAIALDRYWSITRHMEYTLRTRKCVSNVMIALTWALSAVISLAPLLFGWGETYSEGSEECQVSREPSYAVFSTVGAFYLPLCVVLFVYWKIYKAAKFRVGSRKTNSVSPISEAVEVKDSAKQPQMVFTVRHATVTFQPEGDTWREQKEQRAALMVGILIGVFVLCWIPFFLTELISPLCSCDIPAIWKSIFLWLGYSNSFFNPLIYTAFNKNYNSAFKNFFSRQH

Row | Ki (h5-HT5 receptor [1]) [nM] | SMILES | Infarct volume, % of the control [mean value ± SD] (male Long Evans rats; [3]) | Quotient m ± sm of neuron count of the trauma side to the contralateral side (hippocampus) (hippocampal neurons) | other results
1 | 661 | CN1CCc2c(sc3ncn(CCN4CCN(c5cccc(C(F)(F)F)c5)CC4)c(=O)c23)C1 [Compound A, 3,4,5,6,7,8-Hexahydro-7-methyl-3-[2-(4-(3-trifluoromethyl-phenyl)piperazin-1-yl)ethyl]pyrido[4′,3′:4,5]thieno[2,3-d]-pyrimidin-4-one] | – | – | Infarct volume, % of the control [mean value ± SD] (male Long Evans rats; 4 + 2 mg/kg + mg/kg/h i.v. bolus then infusion): 62 ± 18 % of the control
2 | 124 | CCN1CCc2sc3ncn(CCN4CCN(c5cccc6ccccc56)CC4)c(=O)c3c2C1 [Compound B, 3,4,5,6,7,8-Hexahydro-6-ethyl-3-[2-(4-(1-naphthyl)piperazin-1-yl)ethyl]pyrido[3′,4′:4,5]thieno[2,3-d]pyrimidin-4-one] | 66 ± 19 % of the control | 0.64 ± 0.03 | –
3 | 237 | COc1ccc2cccc(N3CCN(CCn4cnc5sc6c(c5c4=O)CCN(C)C6)CC3)c2c1 [Compound C] | – | 0.56 ± 0.05 | Infarct volume, % of the control (male Long Evans rats; 1 + 0.5 mg/kg + mg/kg/h i.v. bolus then infusion): 67 % of the control

The remaining lines, values behind:

Row | SMILES | Ki (h5-HT5 receptor [1]) [nM] | Infarct volume, % of the control [mean value ± SD] (male Long Evans rats; [3]) | Quotient m ± sm of neuron count of the trauma side to the contralateral side (hippocampus) (hippocampal neurons) | other results
4 | NCCc1c[nH]c2ccc(C(N)=O)cc12 [Compound 5-CT, 5-carboxamidotryptamine, reference compound] | – | – | – | Ki (h5-HT5 receptor [1]; 2 nM [3H]-5-CT, 75 min at 30° C., Ki=IC50/(1+C/Kd)): 1.44 nM; Kd (h5-HT5 receptor [2]): 0.57 nM
5 | CCCN(CCC)C1CCc2cccc(O)c2C1 (stereo not drawn) [R(+)-8-OH-DPAT, 8-hydroxy-2-(di-n-propylamino)tetralin, reference compound] | – | 72 ± 32 % of the control | – | –
